Where a name gives a salt, the structure may show the parent alone. Read-outs that look alike come from different tables or passages of the source.
Assays:
washed platelets = assay: Aggregation of washed platelets; type: cell-based
Rat tail bleeding model = type: in vivo
Protocol: Bleeding times were determined in a rat tail bleeding model following intravenous administration of heparin and TRI 50b. The doses employed were chosen on the basis of their efficacy in the rat Wessler and dynamic models and were as follows:
Rats were anaesthetised with sodium pentabarbitone at 60 mg/kg (2.0 ml/kg of 30 mg/ml solution by ip. injection). Supplemental anaesthetic was given ip. as required.
A jugular vein was cannulated for the administration of test compound. The trachea was also cannulated with a suitable cannula and the animals allowed to breathe ‘room air’ spontaneously.
These were given in the appropriate vehicle at 1.0 ml/kg intravenously. Heparin was administered in saline, whilst TRI 50b was dissolved in ethanol, and then the resultant solution added to water for injection (1 part ethanol to 5 parts water).
Two minutes following compound administration the distal 2 mm of the animal's tail was sectioned with a new scalpel blade and the tail immersed in warm saline (37° C.) contained in a standard ‘universal’ container, so that the blood stream was clearly visible. The bleeding time recording was started immediately following transection until the cessation of blood flow from the tip of the tail.

[1] = tested on: platelet procoagulant activity; assay: Inhibition of platelet procoagulant activity (washed platelets, prothrombin activation); type: cell-based; settings: agonist Thrombin (1.15 nM)
From the text: Platelet pro-coagulant activity may be observed as the increase, in rate of activation of prothrombin by factor Xa in the presence of factor Va upon the addition of platelets pretreated with thrombin, caused by thrombin alone, collagen alone or a mixture of thrombin and collagen. This property is due to an increase in anionic phospholipid on the surface of the platelet with concomitant release of microvesicle from the surface. This is an essential physiological reaction and people whose platelets have reduced ability to generate procoagulant activity (Scott syndrome) show an increased tendency for bleeding.
Washed platelets were treated with either 1.15 nM thrombin, 23 μg/ml collagen or a mixture of both at the same concentration at 37° C. TRI 50b was added either for 1 minute prior to the addition of activator or immediately after the incubation with activator. Platelet procoagulant activity was determined as described previously (Goodwin C A et al, Biochem J. 1995 8, 308: 15-21).

human α-thrombin = human α-thrombin (Homo sapiens, UniProt P00734); settings: reported by J. Deadman et al, J. Med. Chem. 1995; cited from earlier work
platelet rich thrombus = assay: Rabbit extracorporeal shunt model; type: in vivo
From the text: The technique describes an animal model in which a platelet rich thrombus is produced. The activity of TRI 50b and heparin are compared.
The carotid artery and jugular vein of anaesthetised rabbits were used to create an extracorporeal circuit containing a suspended foreign surface (silk thread). Thrombus deposition is initiated by creation of high sheer stress turbulent arterial blood flow, platelet activation, followed by coagulation in the presence of thrombogenic surfaces. Histopathological studies have shown that the thrombus is platelet rich.
NZW rabbits (males 2.5-3.5 kg) were used. The animals were allowed food and water up to the induction of anaesthesia.
Animals were premedicated with […] (Hypnorm) 0.15 ml total by intramuscular injection. General anaesthesia was induced with methohexitone (10 mg/ml) to effect, followed by endotracheal intubation. Anaesthesia was maintained with isoflurane (1-2.0%) carried in oxygen/nitrous oxide.
The animals were placed in dorsal recumbency and the ventral cervical region prepared for surgery. The left carotid artery and right jugular vein were exposed. The artery was cannulated with a large Portex® catheter (yellow gauge), cut to a suitable length. The vein was cannulated with a Silastic® catheter. The shunt comprised of a 5 cm length of ‘auto analyser’ line (purple/white gauge). Joins to the shunt on the arterial side were made with intermediate size Silastic® tubing. The shunt was filled with saline before exposure to the circulation. The right femoral artery was cannulated for the measurement of blood pressure.
The central section of the shunt contained a thread 3 centimetres in length. This consisted of 000 gauge Gutterman sewing silk so as to give four strands with a single knot at the end. (The knot section was outside the shunt).
Blood flow velocity was determined by use of ‘Doppler’ probes (Crystal Biotech). A silastic probe was positioned over the carotid artery at the point of insertion of the arterial catheter. Flow was recorded on a chart recorder using heat sensitive paper.

[2] = i.v. pharmacokinetics in rats; type: in vivo; settings: plasma, rat, 1.0 mg/kg iv; for half-life: read-out: Elimination half life; for MRT: read-out: Mean Residence Time (converted)
Protocol: Rats, body weight circa 250-300 g were used.
Both compounds were given at a dose of 1.0 mg/kg iv.
This was dosed at 1.33 ml/kg (equivalent to 30 mg/kg).

[3] = Hydrolysis of TRI 50b in acid conditions (HPLC assay); type: physicochemical; settings: for example of an HPLC assay
From the text: It has been discovered that TRI 50b tends to hydrolyse.

[4] = Stability: HPLC-PDA assay before and after drying over phosphorus pentoxide for 1 week; type: physicochemical
Protocol: An assay of TRI 50c and its sodium and lysine salts before and after drying.
For sample analysis, 5 mg of dried and non-dried material was weighed in a 5 mL volumetric flask and dissolved in 1 mL acetonitrile and filled up with demineralised water to 5 mL.
The quantitative evaluation was performed using an HPLC-PDA method.

[5] = Tolerability in beagle dogs after i.v. dose; type: in vivo; settings: dog, 1.0 mg/kg i.v., total duration of the study
Protocol: Blood samples were taken into 3.8% tri-sodium citrate (1+8) at pre dose, 2, 5, 10, 20, 30, minutes post dose and then at 1, 2, 3, 4, 6, 8, 12 and 24 hours post dose. Plasma was prepared by centrifugation and frozen at minus 20° C. pending analysis.

Thrombin = biological target: T1, Thrombin (Homo sapiens, UniProt P00734); assay: Thrombin amidolytic assay (Vmax, S2238); type: biochemical; settings: FIG. 1; TRI 50b as external control
T1 construct: Thrombin obtained from HTI, via Cambridge Bioscience; purchased HTI, via Cambridge Bioscience
Protocol: Chromogenic substrate S2238 dissolved to 4 mM (25 mg+10 mI) in water. Diluted to 50 μM with assay buffer for use in assay at 5 μM. (S2238 is H-D-Phe-Pip-Arg-pNA).
Thrombin obtained from HTI, via Cambridge Bioscience, and aliquoted at 1 mg/ml with assay buffer. Dilute to 100 ng/ml with assay buffer and then a further 1 in 3 for use in the assay.

With `COCCC[C@H](NC(=O)[C@@H]1CCCN1C(=O)[C@@H](Cc1ccccc1)NC(=O)OCc1ccccc1)B1OC(C)(C)C(C)(C)O1` [TRI 50b, Cbz-(R)-Phe-Pro-BoroMpg-OPinacol] the “effect on ADP, collagen or epinephrine induced aggregation of washed platelets” value (washed platelets) was “does not have an effect”, the “Bleeding time min (±SEM)” value (Rat tail bleeding model; 5 mg/kg iv) was 11.3 ± 1.2 min and the “Bleeding time min (±SEM)” value (Rat tail bleeding model; 10 mg/kg iv) was 30.4 ± 5.2 min. For the same compound, the IC50 ([1]; TRI 50b added 1 minute prior to activator, read-out: IC50 plus pre-incubation) was 8 nM, the IC50 ([1]; TRI 50b added after incubation with activator, read-out: IC50 without incubation) was 3000 nM and the Ki (human α-thrombin) was 7 nM. The “ANTITHROMBOTIC ACTIVITY” value (platelet rich thrombus; 3.0 mg/kg iv) was “Active”, the “bleeding in shunt model” value (platelet rich thrombus; 3 mg/kg to 10 mg/kg iv) was “without bleeding” and the “ANTITHROMBOTIC ACTIVITY” value (platelet rich thrombus; 10 mg/kg iv) was “Active”. The clearance [2] was 10 mL/min/kg, the half-life [2] was 35 min and the MRT [2] was 46 min. The “hydrolysis to the acid form, half life” value [3] was “short half life”.

For `COCCC[C@H](NC(=O)[C@@H]1CCCN1C(=O)[C@@H](Cc1ccccc1)NC(=O)OCc1ccccc1)B(O)O` [TRI 50c sodium salt, Cbz-(R)-Phe-(S)-Pro-(R)-Mpg-B(OH)2 monosodium salt], the “stability: effect of drying on purity” value ([4]; in words) was “not significantly reduced” and the tolerability [5] was “tolerated well with no adverse events”.

For `COCCC[C@H](NC(=O)[C@@H]1CCCN1C(=O)[C@@H](Cc1ccccc1)NC(=O)OCc1ccccc1)B(O)O` [TRI 50c, Cbz-(R)-Phe-(S)-Pro-(R)-boroMpg-OH], the “Purity (% area)” value ([4]; non-dried) was 85.54 % area, the Amount ([4]; non-dried, 5 mg in 5 mL) was 947.3 µg/mL and the clearance [2] was 11.3 mL/min/kg. For the same compound, the half-life [2] was 36.6 min and the MRT [2] was 45 min.

In the case of `COCCC[C@H](NC(=O)[C@@H]1CCCN1C(=O)[C@@H](Cc1ccccc1)NC(=O)OCc1ccccc1)B([O-])O.COCCC[C@H](NC(=O)[C@@H]1CCCN1C(=O)[C@@H](Cc1ccccc1)NC(=O)OCc1ccccc1)B([O-])O.[Mg+2]` [magnesium salt of TRI 50c], the “activity in thrombin amidolytic assay (Vmax)” value (Thrombin) is reported as “same activity as TRI 50b”.

— patent publication US7371729B2, “Boronic acid salts useful in parenteral formulations” (Trigen Limited, priority 2002, dated 2008)
